Values quoted from earlier work, collected in publication PMC5225183, “Fingerprinting of neurotoxic compounds using a mouse embryonic stem cell dual luminescence reporter assay” (Archives of Toxicology, 2016).

How the values were obtained:
[1] = set-up: method as in Australian Therapeutic Goods Administration [2014]; conditions: rats, toxic dose level 10 mg/kg/day; ref Australian Therapeutic Goods Administration [2014]; cited from earlier work
[2] = test system: rats; conditions: Sprague Dawley rats, GD 6 through LD 20; ref US FDA [2012]; cited from earlier work

C[C@]12CC[C@H](O)CC1=CC[C@@H]1[C@@H]2CC[C@]2(C)C(c3cccnc3)=CC[C@@H]12 [Abiraterone]
AUC [1]: 34 ng·h/mL | Cmax [1]: 10.8 ng/mL

C/C(O)=C(\C#N)C(=O)Nc1ccc(C(F)(F)F)cc1 [Teriflunomide]
oral dose leading to teratogenicity [2]: 0.3 mg/kg/day
